Laboratory results: patent publication US9546157B2, “Asymmetric piperidinyl-substituted ureas as medicines” (Helsinn Healthcare SA, priority 2014, dated 2017)
pEC50, pIC50: −log10 of the molar value.

Legend:
[1] = biological target: T1, GHSR1a (Homo sapiens, UniProt Q92847); assay: Calcium FLIPR assay, GHSR-1a antagonism (reduction of ghrelin response); format: cell-based; settings: HEK293/GHSR1a cells, ghrelin 10 nM
T1 construct: expressed in transfected cells; host or cells: HEK293
Procedure, shortened: (§1)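 HEK293/GHSR1a; dye load 30-60 min, RT or 37° C; agonist: cpd at t=20 sec, Ca2+ read 2 min; antagonist: cpd + ghrelin 10 nM at t=20 sec, 2 min read; EC50/IC50 from dose-response fits.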

[2] = biological target: T1, GHSR1a; assay: Calcium FLIPR assay, GHSR-1a agonism; format: cell-based; set-up: Emax: unit not given here; settings: HEK293/GHSR1a cells
Procedure, shortened: as §1

[3] = Metabolic Stability (H = Human); format: in vitro ADME
[4] = Metabolic Stability (M = Mouse); format: in vitro ADME

T1 sequence (Q92847 whole entry): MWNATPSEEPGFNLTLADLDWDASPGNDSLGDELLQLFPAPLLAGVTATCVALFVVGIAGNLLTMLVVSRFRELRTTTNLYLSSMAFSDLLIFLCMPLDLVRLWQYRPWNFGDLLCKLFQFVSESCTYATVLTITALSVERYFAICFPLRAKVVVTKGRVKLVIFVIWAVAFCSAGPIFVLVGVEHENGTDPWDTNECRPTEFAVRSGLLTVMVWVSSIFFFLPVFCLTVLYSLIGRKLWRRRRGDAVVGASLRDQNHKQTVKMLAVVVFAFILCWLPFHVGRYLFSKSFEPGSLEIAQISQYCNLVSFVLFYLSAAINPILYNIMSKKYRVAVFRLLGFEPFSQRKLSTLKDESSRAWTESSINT

Row | pIC50 [1] | pEC50 [2] | Metabolic Stability H [3] | Metabolic Stability M [4] | Emax [2] | SMILES
1 | 7.89 | 7.66 | High H High M | High H High M |  | CC(NC(=O)N(C)C1CCN(C)CC1)c1ccc(-c2cnn(C)c2)c(Cl)c1Cl (centres unmarked) [Compound H0501, 3-(1-(2,3-dichloro-4-(1-methyl-1H-pyrazol-4-yl)phenyl)ethyl)-1-methyl-1-(1-methylpiperidin-4-yl)urea]
2 | 8.10 | 7.92 | High H High M | High H High M |  | CC(NC(=O)N(C)C1CCN(C)CC1)c1ccc(-c2ccoc2)c(Cl)c1Cl (centres unmarked) [Compound H0507, 3-(1-(2,3-dichloro-4-(furan-3-yl)phenyl)ethyl)-1-methyl-1-(1-methylpiperidin-4-yl)urea]
3 | 7.12 | < 4.52 | Medium | High |  | COc1ccc(-c2ccc(C(C)NC(=O)N(C)C3CCN(C)CC3)c(Cl)c2Cl)cc1 (centres unmarked) [Compound H0508, 3-(1-(2,3-dichloro-4′-methoxy-[1,1′-biphenyl]-4-yl)ethyl)-1-methyl-1-(1-methylpiperidin-4-yl)urea]
4 | 7.80 | 7.42 | Medium H Medium M | Medium H Medium M |  | CC(NC(=O)N(C)C1CCN(C)CC1)c1ccc(-c2cnc3[nH]ccc3c2)c(Cl)c1Cl (centres unmarked) [Compound H0514]
5 | 8.52 | 8.22 | Medium H Medium M | Medium H Medium M |  | CC(NC(=O)N(C)C1CCN(C)CC1)c1ccc(I)c(Cl)c1Cl (centres unmarked) [Compound H0519, 3-(1-(2,3-dichloro-4-iodophenyl)ethyl)-1-methyl-1-(1-methylpiperidin-4-yl)urea]
6 | 7.72 | < 4.52 | Medium H Medium M | Medium H Medium M |  | CC(NC(=O)N(C)C1CCN(C)CC1C)c1ccc(-c2cccnc2)c(Cl)c1Cl (centres unmarked) [Compound H0527, 3-(1-(2,3-dichloro-4-(pyridin-3-yl)phenyl)ethyl)-1-(1,3-dimethylpiperidin-4-yl)-1-methylurea]
7 | 7.47 | < 4.52 | Medium H Medium M | Medium H Medium M |  | CC(NC(=O)N(C)C1CCN(C)CC1C)c1ccc(-c2cn[nH]c2)c(Cl)c1Cl (centres unmarked) [Compound H0528, 3-(1-(2,3-dichloro-4-(1H-pyrazol-4-yl)phenyl)ethyl)-1-(1,3-dimethylpiperidin-4-yl)-1-methylurea]
8 | 7.92 | < 4.52 | Medium | Poor |  | CC(NC(=O)N(C)C1CCN(C)C1)c1ccc(-c2cn[nH]c2)c(Cl)c1Cl (centres unmarked) [Compound H0529, 3-(1-(2,3-dichloro-4-(1H-pyrazol-4-yl)phenyl)ethyl)-1-methyl-1-(1-methylpyrrolidin-3-yl)urea]
9 | 8.40 | 8.30 | Medium | Poor |  | CC(NC(=O)N(C)C1CCN(C)C1)c1ccc(-c2ccsc2)c(Cl)c1Cl (centres unmarked) [Compound H0531, 3-(1-(2,3-dichloro-4-(thiophen-3-yl)phenyl)ethyl)-1-methyl-1-(1-methylpyrrolidin-3-yl)urea]
10 | 7.89 | < 4.52 | Poor H Poor M | Poor H Poor M |  | COC(=O)c1ccc(CN(C(=O)NC(C)c2ccc(-c3cn[nH]c3)c(Cl)c2Cl)C2CCN(C)CC2)cc1 (centres unmarked) [Compound H0537, methyl 4-((3-(1-(2,3-dichloro-4-(1H-pyrazol-4-yl)phenyl)ethyl)-1-(1-methylpiperidin-4-yl)ureido)methyl)benzoate]
11 | 7.74 | 7.82 | High H High M | High H High M |  | CC(NC(=O)N(C)C1CCN(C)CC1)c1ccc(-c2c[nH]cn2)c(Cl)c1Cl (centres unmarked) [Compound H0542, 3-(1-(2,3-dichloro-4-(1H-imidazol-4-yl)phenyl)ethyl)-1-methyl-1-(1-methylpiperidin-4-yl)urea]
12 | 8.10 | < 4.52 | Medium H Medium M | Medium H Medium M |  | CC(NC(=O)N(Cc1ccc(CO)cc1)C1CCN(C)CC1)c1ccc(-c2cccnc2)c(Cl)c1Cl (centres unmarked) [Compound H0546, 3-(1-(2,3-dichloro-4-(pyridin-3-yl)phenyl)ethyl)-1-(4-(hydroxymethyl)benzyl)-1-(1-methylpiperidin-4-yl)urea]
13 | 7.55 | 7.52 | High H High M | High H High M |  | CC(NC(=O)N(C)C1CCN(C)CC1)c1ccc(-n2ccnn2)c(Cl)c1Cl (centres unmarked) [Compound H0565, 3-(1-(2,3-dichloro-4-(1H-1,2,3-triazol-1-yl)phenyl)ethyl)-1-methyl-1-(1-methylpiperidin-4-yl)urea]
14 | 8.05 | 8.40 | High H High M | High H High M |  | CC(NC(=O)N(C)C1CCN(C)CC1)c1ccc(-c2cscn2)c(Cl)c1Cl (centres unmarked) [Compound H0568, 3-(1-(2,3-dichloro-4-(thiazol-4-yl)phenyl)ethyl)-1-methyl-1-(1-methylpiperidin-4-yl)urea]
15 | 7.06 | < 4.52 | Medium H Medium M | Medium H Medium M |  | CC(NC(=O)N(C)C1CCN(C)CC1)c1ccc(-c2cocn2)c(Cl)c1Cl (centres unmarked) [Compound H0569, 3-(1-(2,3-dichloro-4-(oxazol-4-yl)phenyl)ethyl)-1-methyl-1-(1-methylpiperidin-4-yl)urea]
16 | 7.17 | 7.09 | Medium H Medium M | Medium H Medium M | 2489 | CC(NC(=O)N(C)C1CCN(C)CC1)c1ccc(-c2ccsc2)c2ccccc12 (centres unmarked) [Compound H0574, 1-methyl-1-(1-methylpiperidin-4-yl)-3-(1-(4-(thiophen-3-yl)naphthalen-1-yl)ethyl)urea]
17 | 7.49 | 7.55 | Medium H Medium M | Medium H Medium M | 3533 | CC(NC(=O)N(C)C1CCN(C)CC1)c1ccc(-c2cccs2)c2ccccc12 (centres unmarked) [Compound H0575, 1-methyl-1-(1-methylpiperidin-4-yl)-3-(1-(4-(thiophen-2-yl)naphthalen-1-yl)ethyl)urea]
18 | 8.05 | < 4.52 |  |  |  | CN1CCC(N(C)C(=O)NC(c2ccc(-c3cnccn3)c(Cl)c2Cl)C(F)(F)F)C1 (centres unmarked) [Compound H0871, 3-(1-(2,3-dichloro-4-(pyrazin-2-yl)phenyl)-2,2,2-trifluoroethyl)-1-methyl-1-(1-methylpyrrolidin-3-yl)urea]
19 | 6.94 | < 4.52 |  |  |  | CN1CCC(N(C)C(=O)NC(CC2CC2)c2ccc(-c3cnccn3)c(Cl)c2Cl)C1 (centres unmarked) [Compound H0874, 3-(2-cyclopropyl-1-(2,3-dichloro-4-(pyrazin-2-yl)phenyl)ethyl)-1-methyl-1-(1-methylpyrrolidin-3-yl)urea]
20 | 7.04 | 7.30 |  |  | 3751 | CC(NC(=O)N(C)C1CCN(C)CC1)c1ccc(OC2CC2)c(Cl)c1Cl (centres unmarked) [Compound H0875, 3-(1-(2,3-dichloro-4-cyclopropoxyphenyl)ethyl)-1-methyl-1-(1-methylpiperidin-4-yl)urea]
21 | 6.89 | < 4.52 |  |  |  | CC(NC(=O)N(C)C1CCN(C)CC1)c1cnc(Cl)c(Cl)c1Cl (centres unmarked) [Compound H0876, 1-methyl-1-(1-methylpiperidin-4-yl)-3-(1-(4,5,6-trichloropyridin-3-yl)ethyl)urea]
22 | 6.09 | < 4.52 |  |  |  | CC(NC(=O)N(C)C1CCN(C)CC1)c1cnc(-c2cnccn2)c(Cl)c1Cl (centres unmarked) [Compound H0881, 3-(1-(4,5-dichloro-6-(pyrazin-2-yl)pyridin-3-yl)ethyl)-1-methyl-1-(1-methylpiperidin-4-yl)urea]
23 | 6.71 | < 4.52 |  |  |  | CC(NC(=O)N(C)C1CCN(C)CC1)c1cnc(C#CC2CC2)c(Cl)c1Cl (centres unmarked) [Compound H0884, 3-(1-(4,5-dichloro-6-(cyclopropylethynyl)pyridin-3-yl)ethyl)-1-methyl-1-(1-methylpiperidin-4-yl)urea]
24 | 8.15 | < 4.52 |  |  |  | CCC(NC(=O)N(CC)C1CCN(C)CC1)c1ccc(-c2cnccn2)c(Cl)c1Cl (centres unmarked) [Compound H0896, 3-(1-(2,3-dichloro-4-(pyrazin-2-yl)phenyl)propyl)-1-ethyl-1-(1-methylpiperidin-4-yl)urea]
25 | 6.90 | 7.72 |  |  | 1359 | CC(NC(=O)N(C)C1CCN(C)CC1)c1ccc(-c2cncc(C(F)(F)F)n2)c(Cl)c1Cl (centres unmarked) [Compound H0910, 3-(1-(2,3-dichloro-4-(6-(trifluoromethyl)pyrazin-2-yl)phenyl)ethyl)-1-methyl-1-(1-methylpiperidin-4-yl)urea]
26 | 5.55 | < 4.52 |  |  |  | COC(=O)C(NC(=O)N(C)C1CCN(C)CC1)c1ccc(-c2cnccn2)c(Cl)c1Cl (centres unmarked) [Compound H0922, methyl 2-(2,3-dichloro-4-(pyrazin-2-yl)phenyl)-2-(3-methyl-3-(1-methylpiperidin-4-yl)ureido)acetate]
27 | 6.52 | < 4.52 |  |  |  | CN1CCC(N(C)C(=O)NC(CO)c2ccc(-c3cnccn3)c(Cl)c2Cl)CC1 (centres unmarked) [Compound H0924, 3-(1-(2,3-dichloro-4-(pyrazin-2-yl)phenyl)-2-hydroxyethyl)-1-methyl-1-(1-methylpiperidin-4-yl)urea]
